Experimental data from publication PMC8659337, “Motor domain-mediated autoinhibition dictates axonal transport by the kinesin UNC-104/KIF1A” (PLoS Genetics, 2021).
Residue numbers refer to the chain shown, from its start.

Key:
KIF13B MD-NC-CC1 [1] = target: T1, KIF13B MD-NC-CC1 (Rattus norvegicus, UniProt A0A0G2K8Z9); assay: microtubule-stimulated ATPase, malachite green phosphate endpoint assay; type: biochemical; details: microtubules present; autoinhibited wild type
T1 construct: MD-NC-CC1 fragment (motor domain, neck coil, CC1)
T1 sequence (A0A0G2K8Z9 48-490 limits assumed): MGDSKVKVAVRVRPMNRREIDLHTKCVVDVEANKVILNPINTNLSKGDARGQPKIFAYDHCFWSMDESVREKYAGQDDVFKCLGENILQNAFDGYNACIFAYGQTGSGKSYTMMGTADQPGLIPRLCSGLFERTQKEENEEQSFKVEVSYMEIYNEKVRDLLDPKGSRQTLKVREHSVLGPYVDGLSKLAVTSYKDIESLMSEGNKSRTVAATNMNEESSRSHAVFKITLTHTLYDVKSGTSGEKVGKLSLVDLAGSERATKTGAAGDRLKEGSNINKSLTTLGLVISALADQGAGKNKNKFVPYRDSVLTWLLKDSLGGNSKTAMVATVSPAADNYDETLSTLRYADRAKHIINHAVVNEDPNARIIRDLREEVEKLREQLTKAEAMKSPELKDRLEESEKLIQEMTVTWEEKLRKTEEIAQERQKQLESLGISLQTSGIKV

[2] = target: T2, UNC-104 (MD-NC-CC1, residue 1-446) (Caenorhabditis elegans, UniProt P23678, C184Y); assay: microtubule-stimulated ATPase assay; type: biochemical; details: microtubules present
T2 construct: MD-NC-CC1 fragment, residues 1-446, bacterial expression
T2 sequence (P23678 1-446 C184Y): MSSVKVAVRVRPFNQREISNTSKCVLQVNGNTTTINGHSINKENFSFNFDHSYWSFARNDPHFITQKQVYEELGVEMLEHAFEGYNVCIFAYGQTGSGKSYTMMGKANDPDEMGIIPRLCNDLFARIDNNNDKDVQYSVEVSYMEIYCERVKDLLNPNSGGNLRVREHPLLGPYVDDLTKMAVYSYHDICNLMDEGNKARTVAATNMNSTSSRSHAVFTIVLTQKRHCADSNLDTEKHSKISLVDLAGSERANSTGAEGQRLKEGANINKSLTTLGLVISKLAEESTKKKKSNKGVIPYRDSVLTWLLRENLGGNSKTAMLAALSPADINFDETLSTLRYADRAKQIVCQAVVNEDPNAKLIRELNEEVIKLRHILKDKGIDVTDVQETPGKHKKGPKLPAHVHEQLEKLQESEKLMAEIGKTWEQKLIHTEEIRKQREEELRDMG

KIF13B MD-NC-CC1 [3] = target: T3, KIF13B MD-NC-CC1 (Rattus norvegicus, UniProt A0A0G2K8Z9, , form not given); assay: microtubule-stimulated ATPase, malachite green phosphate endpoint assay; type: biochemical; details: microtubules present
T3 construct: MD-NC-CC1 fragment (motor domain, neck coil, CC1)
T3 sequence (A0A0G2K8Z9 48-490 T239Y limits assumed): T1 sequence (A0A0G2K8Z9 48-490 limits assumed) with T192Y

[4] = target: T4, UNC-104 (MD-NC-CC1, residue 1-446) (Caenorhabditis elegans, UniProt P23678); assay: microtubule-stimulated ATPase assay; type: biochemical; details: microtubules present
T4 construct: MD-NC-CC1 fragment, residues 1-446, bacterial expression
T4 sequence (P23678 1-446): T2 sequence (P23678 1-446 C184Y) with Y184C

[5] = target: KIF13B T192Y-MD-NC-CC1 mutant (rat); assay: crystal structure; crystals of the KIF13B T192Y-MD-NC-CC1 mutant (~25 mg/ml), 0.1 M Bis-Tris propane pH 8.2, 30% PEG 20000, sitting drop, 16°C; one molecule in the asymmetric unit, dimer formed by a crystallographic two-fold symmetry axis

Compound | microtubule-stimulated ATPase, malachite green phosphate endpoint assay (KIF13B MD-NC-CC1 [1]) | microtubule-stimulated ATPase assay [2] | microtubule-stimulated ATPase, malachite green phosphate endpoint assay (KIF13B MD-NC-CC1 [3]) | microtubule-stimulated ATPase assay [4] | stoichiometry N [5]
Nc1ncnc2c1ncn2[C@@H]1O[C@H](COP(=O)(O)OP(=O)(O)OP(=O)(O)O)[C@@H](O)[C@H]1O [ATP] | Microtubule-stimulated ATPase activity of the KIF13B MD-NC-CC1 fragment | the C184Y mutant undergo a significant enhancement in its ATPase activity | both the T192Y and L397F mutations significantly restored the ATPase activity of the MD-NC-CC1 fragment | the MD-NC-CC1 fragment of UNC-104 shows the moderate MT-stimulated ATPase activity | 
KIF13B T192Y-MD-NC-CC1 mutant (domain or fragment) |  |  |  |  | 2
